According to US10981858B2, “Dendrimer and formulations thereof” (Priostar Pty Ltd, priority 2015, dated 2021):

Test: Imidacloprid 700SC formulation viscosity and stability
Format: physicochemical
Conditions: Imidacloprid 700 g/L formulation, dendrimer 20 g/L
Procedure: Imidacloprid formulations were prepared by using high shear mixing to disperse formulation ingredients in 75% of the required water before adding the active and mixing until homogeneous. The mixture was milled on a bead mill (4 m/s) at 30-35° C. for 1 complete pass. Thickener, glycerine and residual water were then added under high shear mixing. Formulations were tested for viscosity (using a Brookfield LV viscometer) low temperature stability (0 C for 7 days) and RT stability. Many other dendrimers containing formulations prepared either solidified on milling or pre-milling Compound 4 reduced viscosity and provided greater formulation stability.

With `OCCN(CCO)CC(O)COCC(COCC(O)CN(CCO)CCO)(COCC(O)CN(CCO)CCO)COCC(COCC(O)CN(CCO)CCO)(COCC(O)CN(CCO)CCO)COCC(O)CN(CCO)CCO` (stereo not shown) [Compound 4, 9,9′-(Oxybis(methylene))bis(9-((3-(bis(2-hydroxyethyl)amino)-2-hydroxypropoxy)methyl)-3,15-bis(2-hydroxyethyl)-7,11-dioxa-3,15-diazaheptadecane-1,5,13,17-tetraol)] the “Observation: sediment at 0 C.” value (0 C for 7 days) was “No sediment at 0 C.,”, the “Viscosity (cP) 0 C.” value (0 C., Brookfield LV viscometer) was 552 cP and the “Observation: sediment at RT” value (RT) was “fluffy, low sediment at RT”. For the same molecule, the “Viscosity (cP) RT” value (RT, Brookfield LV viscometer) was 574 cP.
